From paper PMC3603449, “The affinity purification and characterization of ATP synthase complexes from mitochondria” (Open Biology, 2013)

Molecular target: T1, bovine F1Fo-ATPase (F-ATP synthase), F1 catalytic site (Bos taurus, UniProt P00829+P19483)
T1 construct: gene ATP5F1B; native purification from heart mitochondria; with ATP synthase F(1) complex subunit gamma, mitochondrial; ATP synthase F(1) complex subunit delta, mitochondrial; ATP synthase F(1) complex subunit epsilon, mitochondrial; ATP synthase F(0) complex subunit C1, mitochondrial (subunit c); ATP synthase F(0) complex subunit a; ATP synthase subunit O, mitochondrial (OSCP); ATP synthase F(0) complex subunit B1, mitochondrial (subunit b); ATP synthase subunit d, mitochondrial; ATP synthase-coupling factor 6, mitochondrial (F6); ATP synthase protein 8 (A6L); ATP synthase subunit e, mitochondrial; ATP synthase subunit f, mitochondrial; ATP synthase subunit g, mitochondrial
Experiment: ATP synthesis in proteoliposomes with bacteriorhodopsin, luciferin-luciferase
Format: biochemical
Settings: turnover only; phosphate, pH 7.4, white light, I1-60GFP present

Nc1ncnc2c1ncn2[C@@H]1O[C@H](COP(=O)(O)OP(=O)(O)O)[C@@H](O)[C@H]1O [ADP]
ATP synthesis in proteoliposomes with bacteriorhodopsin, luciferin-luciferase: On illumination with white light, ATP was synthesized in a linear manner
